The record followed here is US20230192622A1, “ANTI-SARS-COV-2 DRUG” (ONCOLYS BIOPHARMA, INC., priority 2020, published 2023).

A short description of series [1]: in vitro. The conditions noted are these: African green monkey.
Series [2] deals with SARS-CoV-2 (WK-521). The experiment in a line: Anti-SARS-CoV-2 effect, assay with VeroE6/TMPRSS2 cells (inhibition of virus-induced cell death, Cell Counting Kit-8). The series is classed as cell-based. As to conditions: for EC50: VeroE6/TMPRSS2 cells, MOI=0.01, 3 days of culture, read-out: EC50: 50% effective concentration (concentration of agent which inhibits cell death induced by SARS-CoV-2 infection by 50%). (In general: Tetrazolium assays rely on reduction of a dye to a coloured formazan, in cell work by metabolically active cells.)

Series [3] can be described thus: in vitro. As to conditions: human.
For series [4], the system named is SARS-CoV-2 (WK-521). As to the kind of experiment: microbe, parasite or virus in culture. As to conditions: Severe acute respiratory syndrome coronavirus 2, HEK-293T, 72 h, HEK293T/ACE2 cells, MOI=0.1, 3 days, qPCR of viral RNA in supernatant; for IC90: read-out: IC50(μM) (footnote defines IC90: 90% inhibitory concentration); for IC50: read-out: IC50: 50% inhibitory concentration (reduces viral production and replication by 50%). In kind it is cell-based. A general note: Quantitative PCR measures a nucleic acid by following its amplification.

For the compound `CCCCn1c(=O)c2c(OC)cccc2c2cc(C(O)(C(F)(F)F)C(F)(F)F)ccc21` [KZ31, 5-butyl-2-(1′,1′,1′,3′,3′,3′-hexafluoro-2′-hydroxypropan-2′-yl)-7-methoxy-phenanthridin-6(5H)-one], the CC50 at 3 days in “in vitro [1]” is > 10 µM. Further, the EC50 in the series on SARS-CoV-2 (WK-521) [2] turned out to be 3.3 µM.

With `CCCCn1c(=O)c2cc(O)ccc2c2cc(C(O)(C(F)(F)F)C(F)(F)F)cc(OC)c21` [NR-19], the CC50 at 3 days in “in vitro [3]” was > 20 µM. In addition, in the series on SARS-CoV-2 (WK-521) [4], the IC90 is 4.44 µM and the IC50 turned out to be 0.61 µM.

As to `CCCCn1c(=O)c2cc(OC)ccc2c2cc(C(O)(C(F)(F)F)C(F)(F)F)c3c(c21)OCO3` [HA-719, 4-butyl-11-(1′,1′,1′,3′,3′,3′-hexafluoro-2′-hydroxypropan-2′-yl)-7-methoxy-[1,3]dioxolo[4,5-c]phenanthridin-5(4H)-one], the CC50 at 3 days in “in vitro [1]” is > 10 µM. Also, in the series with SARS-CoV-2 (WK-521) [2] (5 μM of HA-719, VeroE6/TMPRSS2 cells), the “cell death due to SARS-CoV-2 infection observed under a microscope (FIG. 2)” value was “almost no cell death was observed”. In the series with SARS-CoV-2 (WK-521) [2], the EC50 was 2.6 µM.

Regarding `CCCCn1c(=O)c2cc(NC(=O)C3CC3)ccc2c2cc(C(O)(C(F)(F)F)C(F)(F)F)ccc21` [NR-51], in “in vitro [3]”, the CC50 at 3 days was determined as 8.4 µM. Besides, in the series with SARS-CoV-2 (WK-521) [4], the IC90 is 1.8 µM and the IC50 is 0.3 µM.

Take `CCCCn1c(=O)c2cc(F)c(OCCN(C)C)cc2c2cc(C(O)(C(F)(F)F)C(F)(F)F)ccc21` [NR-60]: the CC50 at 3 days in the series “in vitro [3]” was 6.73 µM. Moreover, in the series with SARS-CoV-2 (WK-521) [4], the IC90 is > 10 µM and the IC50 turned out to be 0.95 µM.

Turning to `CCCCn1c(=O)c2cc(F)c(OCC(N)=O)cc2c2cc(C(O)(C(F)(F)F)C(F)(F)F)ccc21` [NR-63], in the series “in vitro [3]”, the CC50 at 3 days is > 20 µM. Moreover, in the series with SARS-CoV-2 (WK-521) [4], the IC90 is 2.48 µM and the IC50 was 0.21 µM.

Compound `CCCCn1c(=O)c2cc(F)c(OC3CCOC3)cc2c2cc(C(O)(C(F)(F)F)C(F)(F)F)ccc21` (stereo not drawn) [NR-66] had a CC50 at 3 days in the series “in vitro [3]” of 13.9 µM. Further, in the series on SARS-CoV-2 (WK-521) [4], the IC90 is 5.66 µM and the IC50 was 0.8 µM.

As to `CCCCn1c(=O)c2cc(OC)ccc2c2cc(C(O)(C(F)(F)F)C(F)(F)F)ccc21` [KZ12], the CC50 at 3 days in the series “in vitro [1]” is > 10 µM. For the same compound, the EC50 in the series on SARS-CoV-2 (WK-521) [2] stood at 8.8 µM.

Compound `CCCCn1c(=O)c2cc(F)c(O[C@@H]3COC[C@@H]3O)cc2c2cc(C(O)(C(F)(F)F)C(F)(F)F)ccc21` [NR-65] displayed a CC50 at 3 days in the series “in vitro [3]” of 18.2 µM. For the same compound, in the series on SARS-CoV-2 (WK-521) [4], the IC90 came to 6.76 µM and the IC50 is 0.2 µM.

Consider `CCCCn1c(=O)c2ccccc2c2cc(C(O)(C(F)(F)F)C(F)(F)F)c3c(c21)OCO3` [HA-718, 4-butyl-11-(1′,1′,1′,3′,3′,3′-hexafluoro-2′-hydroxypropan-2′-yl)-[1,3]dioxolo [4,5-c]phenanthridin-5(4H)-one], for which the CC50 at 3 days in “in vitro [1]” was > 10 µM. For the same compound, in the series with SARS-CoV-2 (WK-521) [2], the EC50 was determined as 3.1 µM.

`CCCCn1c(=O)c2cc3c(cc2c2cc(C(O)(C(F)(F)F)C(F)(F)F)ccc21)OCO3` [KZ26, 5-butyl-2-(1′,1′,1′,3′,3′,3′-hexafluoro-2′-hydroxypropan-2′-yl)-[1,3] dioxolo[4,5-j] phenanthridin-6(5H)-one]: the CC50 at 3 days in “in vitro [1]” is > 10 µM. Further, the EC50 with SARS-CoV-2 (WK-521) [2] was 2.9 µM.

With `CCCCn1c(=O)c2cc(F)c(OCCO)cc2c2cc(C(O)(C(F)(F)F)C(F)(F)F)ccc21` [NR-61], the CC50 at 3 days in the series “in vitro [3]” was determined as 19 µM. In addition, in the series with SARS-CoV-2 (WK-521) [4], the IC90 worked out at 4.99 µM and the IC50 is 1.09 µM.

As to `CCCCn1c(=O)c2ccc(OCC(C)(C)O)cc2c2cc(C(O)(C(F)(F)F)C(F)(F)F)ccc21` [NR-32, 5-butyl-2-(1,1,1,3,3,3-hexafluoro-2-hydroxypropan-2-yl)-9-(2-hydroxy-2-methylpropyloxy)phenanthridin-6(5H)-one], the CC50 at 3 days in the series “in vitro [3]” was > 20 µM. Further, in the series with SARS-CoV-2 (WK-521) [4], the IC90 was determined as 2.34 µM and the IC50 is 0.27 µM.

Turning to `CCCCn1c(=O)c2cc3c(cc2c2cc(C(O)(C(F)(F)F)C(F)(F)F)ccc21)OC1COCC1O3` (stereo not drawn) [NR-84], the CC50 at 3 days in the series “in vitro [3]” is > 20 µM. Moreover, in the series with SARS-CoV-2 (WK-521) [4], the IC90 stood at 5.83 µM and the IC50 worked out at 1.74 µM.

For the compound `CCCCn1c(=O)c2ccc(OC(CO)CO)cc2c2cc(C(O)(C(F)(F)F)C(F)(F)F)ccc21` [NR-46], the CC50 at 3 days in the series “in vitro [3]” is > 20 µM. For the same compound, in the series on SARS-CoV-2 (WK-521) [4], the IC90 is 3.76 µM and the IC50 was found to be 0.44 µM.

`CCCCn1c(=O)c2cc(F)c(OCCNC(C)=O)cc2c2cc(C(O)(C(F)(F)F)C(F)(F)F)ccc21` [NR-62] yielded a CC50 at 3 days in the series “in vitro [3]” of 13 µM. For the same compound, in the series with SARS-CoV-2 (WK-521) [4], the IC90 came out at 7.82 µM and the IC50 stood at 1.28 µM.

In the case of `CC(C)Cn1c(=O)c2ccccc2c2cc(C(O)(C(F)(F)F)C(F)(F)F)ccc21` [KZ01], the CC50 at 3 days in “in vitro [1]” was > 10 µM. The EC50 with SARS-CoV-2 (WK-521) [2] worked out at 5.4 µM.

`CCCCn1c(=O)c2cc3c(cc2c2cc(C(O)(C(F)(F)F)C(F)(F)F)c4c(c21)OCO4)OCO3` [HA-754]: the CC50 at 3 days in “in vitro [1]” is > 10 µM. Moreover, the EC50 in the series on SARS-CoV-2 (WK-521) [2] came to 5 µM.

`CCCCn1c(=O)c2cc(OCCO)ccc2c2cc(C(O)(C(F)(F)F)C(F)(F)F)cc(OC)c21` [NR-26]: the CC50 at 3 days in “in vitro [3]” was > 20 µM. In the series with SARS-CoV-2 (WK-521) [4], the IC90 is 14.8 µM and the IC50 was 1.24 µM.

As to `CCCCn1c(=O)c2cc(F)c(OCC(O)CO)cc2c2cc(C(O)(C(F)(F)F)C(F)(F)F)ccc21` (stereo not drawn) [NR-82], the CC50 at 3 days in “in vitro [3]” is 14.5 µM. Further, in the series on SARS-CoV-2 (WK-521) [4], the IC90 was found to be 8.57 µM and the IC50 is 0.95 µM.

Regarding `CCCCn1c(=O)c2ccc(OCC(=O)NC)cc2c2cc(C(O)(C(F)(F)F)C(F)(F)F)ccc21` [NR-97], the CC50 at 3 days in “in vitro [3]” was > 20 µM. Further, in the series on SARS-CoV-2 (WK-521) [4], the IC90 stood at 3.27 µM and the IC50 was 0.24 µM.

In turn, `CCCCn1c(=O)c2cc(F)c(OC3COC3)cc2c2cc(C(O)(C(F)(F)F)C(F)(F)F)ccc21` [NR-80] returned a CC50 at 3 days in “in vitro [3]” of 19.1 µM. Besides, in the series on SARS-CoV-2 (WK-521) [4], the IC90 amounted to 6.16 µM and the IC50 worked out at 0.59 µM.

Take `CCCCn1c(=O)c2cc(OC)ccc2c2cc(C(O)(C(F)(F)F)C(F)(F)F)c(OC)c(OC)c21` [HA-727, 5-butyl-2-(1′,1′,1′,3′,3′,3′-hexafluoro-2′-hydroxypropan-2′-yl)-3,4,8-trimethoxy-phenanthridin-6(5H)-one]: the CC50 at 3 days in “in vitro [1]” is > 10 µM. The EC50 in the series with SARS-CoV-2 (WK-521) [2] is 4.8 µM.

`CCCCn1c(=O)c2cccc(OC)c2c2cc(C(O)(C(F)(F)F)C(F)(F)F)ccc21` [KZ33, 5-butyl-2-(1′,1′,1′,3′,3′,3′-hexafluoro-2′-hydroxypropan-2′-yl)-10-methoxy-phenanthridin-6(5H)-one]: the CC50 at 3 days in the series “in vitro [1]” is > 10 µM. Also, the EC50 in the series on SARS-CoV-2 (WK-521) [2] was determined as 4.1 µM.

`CCCCn1c(=O)c2ccc(OCCO)cc2c2cc(C(O)(C(F)(F)F)C(F)(F)F)ccc21` [NR-04, 5-butyl-2-(1,1,1,3,3,3-hexafluoro-2-hydroxypropan-2-yl)-9-(2-hydroxyethoxy)-phenanthridin-6(5H)-one]: the CC50 at 3 days in “in vitro [3]” is > 20 µM. Also, in the series with SARS-CoV-2 (WK-521) [4], the IC90 is 3.72 µM and the IC50 worked out at 0.489 µM.

`CCCCn1c(=O)c2cc(O)c(OC3(C)CNC3)cc2c2cc(C(O)(C(F)(F)F)C(F)(F)F)ccc21` [NR-58] had a CC50 at 3 days in “in vitro [3]” of 10.6 µM. In the series on SARS-CoV-2 (WK-521) [4], the IC90 was determined as 4.69 µM and the IC50 turned out to be 1.04 µM.

For `CCCCn1c(=O)c2ccccc2c2cc(C(O)(C(F)(F)F)C(F)(F)F)cc(OC)c21` [KZ08], the CC50 at 3 days in the series “in vitro [1]” is > 10 µM. Also, the EC50 with SARS-CoV-2 (WK-521) [2] was 2.9 µM.

`CCCCn1c(=O)c2cc(OC3CCOC3)c(OC3CCOC3)cc2c2cc(C(O)(C(F)(F)F)C(F)(F)F)ccc21` (stereo not drawn) [NR-67] returned a CC50 at 3 days in “in vitro [3]” of 19 µM. For the same compound, in the series on SARS-CoV-2 (WK-521) [4], the IC90 is > 10 µM and the IC50 stood at 1.32 µM.
